Assay results: patent publication US4362743A, “Antibacterial monic acid esters” (Beecham Group Limited, priority 1980, dated 1982)

What was measured:
[1] = Mean serum concentrations in neonatal piglets after intramuscular or oral administration; type: in vivo; conditions: pig, 50 mg/kg; for concentration at 40 min: 40° (printed)
Protocol: Blood levels were assessed in neonatal piglets (2 to 4 animals per group and mean bodyweights about 2 kg). The dose was 50 mg/kg (dose solution=25 mg/ml in 25% ethanol). Doses were given by intramscular injection and orally by stomach tube. Piglets were beld at intervals up to 6 and at 24 hours, serum assayed microbiologically (B. subtilis ATCC 6633).

in vivo = conditions: mouse, 50 mg/kg

Row | Compound | concentration at 5 min (in vivo; po) [ng/mL] | concentration at 10 min (in vivo; po) [ng/mL] | concentration at 20 min (in vivo; po) [ng/mL] | concentration at 0.5 h (in vivo; po) [ng/mL] | concentration at 0.75 h (in vivo; po) [ng/mL] | concentration at 1 h (in vivo; po) [ng/mL] | concentration at 1.5 h (in vivo; po) [ng/mL] | concentration at 5 min (in vivo; sc) [ng/mL] | concentration at 10 min (in vivo; sc) [ng/mL] | concentration at 20 min (in vivo; sc) [ng/mL] | concentration at 0.5 h (in vivo; sc) [ng/mL] | concentration at 0.75 h (in vivo; sc) [ng/mL] | concentration at 1 h (in vivo; sc) [ng/mL] | concentration at 1.5 h (in vivo; sc) [ng/mL] | other results
1 | C/C(=C\C(=O)OCCCC(=NO)c1ccccc1)C[C@@H]1OC[C@H](C[C@@H]2O[C@H]2[C@@H](C)[C@H](C)O)[C@@H](O)[C@H]1O [Example 1, 4-Hydroxyimino-4-phenylbutyl monate A] | 1000 | 790 | 230 | < 200 | < 200 | < 120 | < 200 | 4400 | 6500 | 3100 | 1600 | 460 | 280 | < 200 | concentration at 40 min ([1]; im): 6300 ng/mL; concentration at 10 min ([1]; im): 7000 ng/mL; concentration at 20 min ([1]; im): 6700 ng/mL; concentration at 1 h ([1]; im): 6600 ng/mL; concentration at 2 h ([1]; im): 5200 ng/mL; concentration at 3 h ([1]; im, 3h): 2900 ng/mL; concentration at 4 h ([1]; im, 4h): 1700 ng/mL; concentration at 6 h ([1]; im, 6h): < 900 ng/mL; concentration at 40 min ([1]; po): 3300 ng/mL; concentration at 10 min ([1]; po): 3000 ng/mL; concentration at 20 min ([1]; po): 3000 ng/mL; concentration at 1 h ([1]; po): 1200 ng/mL; concentration at 2 h ([1]; po): < 1000 ng/mL
2 | C/C(=C\C(=O)OC1CCC(=NO)CC1)C[C@@H]1OC[C@H](C[C@@H]2O[C@H]2[C@@H](C)[C@H](C)O)[C@@H](O)[C@H]1O (stereo partly shown) [Example 3, 4-Hydroxyiminocyclohexyl monate A] | 3500 | 3500 | 2200 | 1900 | 1600 | 800 | 600 | 20600 | 23000 | 16600 | 7900 | 2900 | 1500 | 300 | 
3 | C/C(=C\C(=O)OCCCCCC=NN(C)C)C[C@@H]1OC[C@H](C[C@@H]2O[C@H]2[C@@H](C)[C@H](C)O)[C@@H](O)[C@H]1O [Example 6, 6-Dimethylhydrazonohexyl monate A] | 3400 | 3400 | 680 | < 600 | < 600 | < 600 | < 600 | 12100 | 14800 | 9700 | 6800 | 3800 | 2300 | < 600 | 
